Data set [1] deals with L. amazonensis promastigotes. Put plainly: anti-promastigote assay (MTT) against L. amazonensis. Type of data set: cell-based, Leishmania amazonensis. The following applies: 72 h. How it is done: (§1) L. amazonensis promastigotes (MPRO/BR/1972/M1841-LV-79) were grown in LIT culture medium, while L. infantum promastigotes (MNYC/BZ/62/M379) were cultivated in 199 culture medium (Sigma-Aldrich, St. Louis, MO, USA) supplemented with 10% heat-inactivated fetal bovine serum (FBS; Gibco/Invitrogen) and in 10% urine, at 28 °C, until reaching the mid-log phase of growth. Macrophages were sourced from the peritoneal cavity of Swiss mice, using the methodology outlined by de Almeida et al. 2017 [60]. For the anti-promastigote assays, L. infantum and L. amazonensis cultures in the exponential growth phase were transferred to 96-well plates at a final concentration of 1 × 10^7 promastigotes mL^−1. Subsequently, the tested compounds were added at concentrations ranging from 1.28 to 100 µmol L^−1 to assess their anti-promastigote activity. After 72 h, viable promastigotes were determined using the MTT method.
(§2) Anti-promastigote and anti-amastigote assays, the infection index (percentage of infected cells * number of intracellular parasites/numbers of infected cells), and their cytotoxic activity were conducted as previously described.

Data set [2] can be described thus: cytotoxic activity on peritoneal macrophages. The following applies: Swiss, mouse. Type of data set: cell-based, Swiss mice. As to the method: For the anti-promastigote assays, L. infantum and L. amazonensis cultures in the exponential growth phase were transferred to 96-well plates at a final concentration of 1 × 10^7 promastigotes mL^−1. […] After 72 h, viable promastigotes were determined using the MTT method.
as §2

Data set [3] concerns L. amazonensis intracellular amastigotes. Type of data set: cell-based, Leishmania amazonensis. As to the method:
as §2

Data set [4] relates to L. infantum promastigotes. Put plainly: anti-promastigote assay (MTT) against L. infantum. Type of data set: cell-based, Leishmania infantum. Particulars: 72 h. As to the method: as §1, §2
The subject of data set [5] is L. infantum intracellular amastigotes. Type of data set: cell-based, Leishmania infantum. As to the method: as §2
Data set [6] relates to L. amazonensis promastigotes. Put plainly: microbe, parasite or virus in culture. Particulars: for IC50: read-out: Promastigote IC50 L. amazonensis in active serum. The source says:
(§3) Several strategies were employed to increase the stability of peptides, including the incorporation of non-natural amino acids, modifications of the N- and/or C-terminal, cyclization, the use of non-peptide structures (peptidomimetics), and multimerization.

Data set [7] has as its system L. infantum promastigotes. Put plainly: microbe, parasite or virus in culture. Particulars: for IC50: read-out: Promastigote IC50 L. infantum in active serum.
Excerpt: as §3

In data set [8] the target is T1, cysteine protease LmCPB2.8∆CTE (CPB) (Leishmania mexicana, UniProt P36400). Put plainly: cysteine protease (CPB) enzyme inhibition assay. Type of data set: biochemical, Leishmania major. Particulars: for inhibition at 20 µM: read-out: CPB Inhibitory Activity 20 μM, 20 μM. As to the method: CPB inhibition experiments were performed as described previously by Moreira et al. 2022 [13]. The results were expressed as mean ± standard deviation of two independent replicates.

For data set [9] the following is noted: eukaryotic membrane mimetic POPC/cholesterol, 50 μM.
Experimental: As illustrated in Figure 5 and Figure 6, the analyte in question (peptide, bioconjugate, or guanidine) was added within 120 s, and after an interval of 360 s, the behavior of the membrane mimetic was reanalyzed. After this time, 10% triton was added so that the vesicles could completely release the carboxyfluorescein.
Large unilamellar vesicles (LUVs) composed of POPC (1-palmitoyl-2-oleoyl-sn-glycero-3-phosphatidylcholine) and cholesterol (Chol) (4:1) or POPC, POPS (1-palmitoyl-2-oleoyl-sn-glycero-3-serine), and ergosterol (Erg) (8:1:1) were prepared according to the methods described by Lorenzón et al. 2014 [62].
In data set [10] the target is T1, cysteine protease LmCPB2.8∆CTE (CPB). Particulars: irreversible inhibitor ref 13; cited from earlier work.
A further data set concerns the target cathepsin B. More on the design: method as in PMID 12574338. Particulars: cited from earlier work.
Where [11] appears, read: peritoneal macrophages, Table 1 (L. amazonensis series).
The mark [12] stands for this setting: peritoneal macrophages, Table 2 (L. infantum series).
The mark [13] stands for this setting: culture medium with active fetal bovine serum.

“And” between values parts separate entries of the source, which are not always exact repeats. Equal values may be shown once. Residues, ends and D or L forms follow the SMILES beside them. *: point of attachment. X1 = O=C(/N=C(/NCc1ccc(C(=O)*)cc1)Nc1ccc(Br)cc1)c1ccccc1; code Z = not defined here

T1 sequence (P36400 126-343): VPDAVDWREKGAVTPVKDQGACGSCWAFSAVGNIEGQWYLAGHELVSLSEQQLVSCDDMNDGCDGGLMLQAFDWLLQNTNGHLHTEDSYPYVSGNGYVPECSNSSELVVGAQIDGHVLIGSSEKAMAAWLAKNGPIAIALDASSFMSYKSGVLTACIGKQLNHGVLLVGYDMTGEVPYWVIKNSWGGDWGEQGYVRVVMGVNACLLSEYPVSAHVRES

The IC50 is the point on the concentration scale where inhibition reaches its midpoint. A word on the CC50: it is the concentration at which the toxic effect on the cells reaches its halfway point. A higher CC50 goes with better tolerance by the cells. Take `N=C(N)NCCC[C@H](NC(=O)[C@H](CCCNC(=N)N)NC(=O)[C@H](CCC(N)=O)NC(=O)[C@H](CCCNC(=N)N)NC(=O)[C@H](CCCNC(=N)N)NC(=O)[C@H](CCCCN)NC(=O)[C@H](CCCCN)NC(=O)[C@H](CCCNC(=N)N)NC(=O)CNC(=O)[C@H](Cc1ccc(O)cc1)NC(=O)c1ccc(CN/C(=N/C(=O)c2ccccc2)Nc2ccc(Br)cc2)cc1)C(=O)O` [GVL1-TAT] (X1-YGRKKRRQRR-OH): the IC50 in [1] was 5.3 µM and 5.32 µM; in data set [3] (read-out: Amastigote IC50), 0.8 ± 0.06 µM; in data set [4] it was 1.2 ± 0.3 µM; in [5] (read-out: Amastigote IC50), 3.8 ± 0.3 µM; in data set [6] (setting [13]), 2.6 ± 0.8 µM; in [7] (setting [13]), 1.2 ± 0.3 µM. The molecule further returned an IC50 in [8] of 3.78 ± 0.1 µM. For the same molecule, the CC50 in data set [2] (setting [11]) is more than 1000 µM; in data set [2] (setting [12]), more than 2000 µM. Moreover, the inhibition at 20 µM in data set [8] was approximately 92%. Moreover, in data set [9], the “permeabilization of vesicles (carboxyfluorescein release)” value was “no damage was observed in the vesicles”.
With `O=C(O)c1ccc(CN/C(=N/C(=O)c2ccccc2)Nc2ccc(Br)cc2)cc1` [GVL1, (Z)-4-((2-benzoyl-3-(4-bromophenyl)guanidino)methyl) benzoic acid], the CC50 in data set [2] (Table 1 (L. amazonensis series)) was more than 1000 µM; in data set [2] (setting [12]), more than 2000 µM. Moreover, the IC50 in [4] (Leishmania infantum) stood at 50.8 ± 2.2 µM; in [6] (Leishmania amazonensis) it was 65 ± 2.4 µM; in data set [7] (Leishmania infantum) it was 50 ± 1.2 µM.
In data set [2] (setting [11]), `C[C@@H]1[C@H](O)[C@@H](C)/C=C/C=C/C=C/C=C/C=C/C=C/C=C/[C@H](O[C@@H]2O[C@H](C)[C@@H](O)[C@H](N)[C@@H]2O)C[C@@H]2O[C@](O)(C[C@@H](O)C[C@@H](O)[C@H](O)CC[C@@H](O)C[C@@H](O)CC(=O)O[C@H]1C)C[C@H](O)[C@H]2C(=O)O` [Amp B, Amphotericin B, reference compound] had a CC50 of 99.8 ± 3.7 µM. In addition, the values for the IC50 in data set [6] (Leishmania amazonensis) and in data set [7] (Leishmania infantum) were 0.5 ± 0.1 µM and 0.3 ± 0.1 µM, respectively.
Regarding `CC(C)C[C@H](NC(=O)[C@H]1O[C@@H]1C(=O)O)C(=O)NCCCCN=C(N)N` (relative stereo) [Compound E64, L-trans-epoxysuccinyl-leucylamido-(4-guanidino)butane], the “inhibition of Leishmania CPB (potency range)” value in [10] is on record as “nanomolar range”.
With `N=C(N)NCCC[C@H](NC(=O)[C@H](CCCNC(=N)N)NC(=O)[C@H](CCC(N)=O)NC(=O)[C@H](CCCNC(=N)N)NC(=O)[C@H](CCCNC(=N)N)NC(=O)[C@H](CCCCN)NC(=O)[C@H](CCCCN)NC(=O)[C@H](CCCNC(=N)N)NC(=O)CNC(=O)[C@@H](N)Cc1ccc(O)cc1)C(=O)O` [TAT, reference compound] (H-YGRKKRRQRR-OH; N-terminus assumed), the figures for the “Promastigote IC50” value in [1] and in data set [4] were “no activity” and “no leishmanicidal activity”, respectively. Moreover, the cytotoxic concentration (CC50) is more than 1000 µM in data set [2] (setting [11]) and more than 2000 µM in data set [2] (setting [12]). The “Amastigote IC50” value in data set [3] is listed as “no activity”; in [5], “no leishmanicidal activity”. Moreover, in data set [6] (setting [13]), the “Promastigote IC50 L. amazonensis in active serum” value was “did not display anti-promastigote activity”. The “Promastigote IC50 L. infantum in active serum” value in data set [7] (setting [13]) was “did not display anti-promastigote activity”. Further, the inhibition at 20 µM in data set [8] was determined as 9.42 ± 0.01%.
As a reminder, the Ki is a dissociation constant, usually derived from enzyme kinetics or from competition with a known ligand. As for “Z-Arg-Leu-Val-Gly-Ile-Val-Ome ({code Z}-RLVGIV-OMe; reading uncertain; also: printed as Z-Arg-Leu-Val-Gly-Ile-Val-Ome)”, on cathepsin B, the Ki was 0.088 nM.

The record behind these values is paper PMC11768059, “Guanidines Conjugated with Cell-Penetrating Peptides: A New Approach for the Development of Antileishmanial Molecules” (Molecules, 2025).
